{"source": "patent US12391919B2", "about": "“Culture medium, coating matrix and method for maturing midbrain dopaminergic progenitor cells” (NUWACELL BIOTECHNOLOGIES CO., LTD., priority 2022, dated 2025)", "format_in_all_cases": "cell-based, human", "key": {"imDAPs [1]": {"test_system": "imDAPs", "test": "imDAP expansion: cell morphology, cell number (Vi-cell cytometer), expansion fold, Population Doubling Time", "description": "imDAPs were produced according to the method described in CN201910169525.0. The imDAPs (P0) were seeded on VTN-coated plates (1 μg/cm^2) at a density of 1×10^5 cells/cm^2 in the expansion medium (50% DMEM/F12, 50% Neurobasal™ medium, 1% (v/v) Glutamax, 2% (v/v) B27 (50×), 0.2 μM LDN193189, 3 μM CHIR99021, 100 ng/mL FGF8b) in the absence or presence of 5 μM Blebbistatin. In case where Blebbistatin is present, Blebbistatin was either removed 24 hrs after plating or present throughout the culture period. The medium was changed every day for 5 days.\nimDAPs were produced according to the method described in CN201910169525.0. The imDAPs (P0) were seeded on VTN-coated plates (1 μg/cm^2) at a density of 1×10^5 cells/cm^2 in the expansion medium (50% DMEM/F12, 50% Neurobasal™ medium, 1% (v/v) Glutamax, 2% (v/v) B27 (50×), 3 μM CHIR99021, 100 ng/mL FGF8b, […]) in the absence or presence of 0.2 μM LDN193189. The medium was changed every day for 5 days.\nimDAPs were produced according to the method described in CN201910169525.0. The imDAPs (P0) were seeded on VTN-coated plates (1 μg/cm^2) at a density of 1×10^5 cells/cm^2 in the expansion medium (50% DMEM/F12, 50% Neurobasal™ medium, 1% (v/v) Glutamax, 2% (v/v) B27 (50×), 0.2 μM LDN193189, 3 μM CHIR99021, 100 ng/mL FGF8b, 5 μM Blebbistatin). The medium was changed every day. When imDAPs reach 100% confluence (4-5 days), cells were passaged enzymatically with 1× TrypLE, centrifuged at 250 g for 5 minutes, counted and replaced on new VTN-coated plates (1 μg/cm^2) at a density of 1×10^5 cells/cm^2 in the expansion medium. imDAPs were continuously expanded for 6 passages. At each passage, imDAPs were harvested at an expansion fold 5˜10 (over the initial number of imDAPs plated).\nimDAPs were produced according to the method described in CN201910169525.0. The imDAPs (P0) were seeded on DLL4-coated ([…]), VTN-coated (1 μg/cm^2) and DLL4/VTN-coated ([…]) plates at a low density of 1×10^4 cells/cm^2 respectively, and cultured in the expansion medium in the absence or presence of 5 µM SB431542. Medium was replaced every 3rd day until reaching 100% confluence (6 days) for cell collection. The typical cell morphology on day 4 was recorded (FIG. 4A). The cell number of each group was counted by Vi-cell cytometer (FIG. 4B). The cells of each group were stained with Foxa2-PE antibody (BD, #561589), the percentage of Foxa2+ imDAPs were analyzed by flow cytometry (FIG. 4C). The expansion medium used in this example contained the following components: 50% DMEM/F12, 50% Neurobasal™ medium, 1% (v/v) Glutamax, 1% (v/v) B27, 50 μg/ml ascorbic acid, 0.2 μM LDN193189, 100 ng/ml FGF8b, 3 μM CHIR99021 and 10 μM Y27632.\nimDAPs were produced according to the method described in CN201910169525.0. The imDAPs (P0) were seeded on DLL4/VTN-coated (1 μg/cm^2 for each) plates at a low density of 1×10^4 cells/cm^2, and cultured in the expansion medium (EM1, EM2, EM3, EM4). Medium was replaced every 3rd day until reaching 100% confluence (6 days) for cell collection. EM1 used in Example 9 contained the following components: 50% DMEM/F12, 50% Neurobasal™ medium, 1% (v/v) Glutamax, 1% (v/v) B27 (50×), […], 3 μM CHIR99021, 5 μM SB431542 and 10 μM Y27632. EM2 used in Example 9 contained the following components: 50% DMEM/F12, 50% Neurobasal™ medium, 1% (v/v) Glutamax, 1% (v/v) B27 (50×), 50 μg/ml ascorbic acid, […] LDN193189, 3 μM CHIR99021, 5 μM SB431542 and 10 μM Y27632. EM3 used in Example 9 contained the following components: 50% DMEM/F12, 50% Neurobasal™ medium, 1% (v/v) Glutamax, 1% (v/v) B27 (50×), 50 μg/mL ascorbic acid, […], 100 ng/ml FGF8b, 3 μM CHIR99021, 5 μM SB431542 and 10 μM Y27632. EM4 used in Example 9 contained the following components: 50% DMEM/F12, 50% Neurobasal™ medium, 1% (v/v) Glutamax, 1% (v/v) B27 (50×), 50 μg/ml ascorbic acid, 0.2 μM LDN193189, 10 ng/ml FGF2, 3 μM CHIR99021, 5 μM SB431542 and 10 μM Y27632. […]"}, "imDAPs [2]": {"test_system": "imDAPs", "test": "imDAP maturation: cell morphology, adhesion and cell yield", "settings": "Example 12; 1 μM IWR1 for at least 3 days; day 7; FIG. 7D", "description": "imDAPs were produced according to the method described in CN201910169525.0, and expanded as described in Example 10. […] MM-H used in Example 11 contained the following components: Neurobasal™ medium, 1% (v/v) Glutamax, 0.5 mM Db-cAMP sodium salt, 200 μM ascorbic acid, 20 ng/ml BDNF, 20 ng/ml GDNF, 1 ng/ml TGF-β3, 10 μM DAPT, HhPLT (0.5%, 1%, 2%). MM-B used in Example 11 contained the following components: Neurobasal, 1% (v/v) Glutamax, 0.5 mM Db-cAMP sodium salt, 200 μM ascorbic acid, 20 ng/ml BDNF, 20 ng/ml GDNF, 1 ng/ml TGF-β3, 10 μM DAPT, 2% (v/v) B27 (50×) (as control). The above HhPLT was produced from hPLT as follows. The hPLT was centrifuged at 3000 g for 30 min at 4° C. to obtain the supernatant, which was heated to 56° C. for 30 min. The suspension was finally cooled down to 4° C. at least 5 min, and spun at 3000 g for 30 min at 4° C. to obtain the HhPLT supernatant. Aliquots were prepared and stored at −80° C. until use. The above Medium was changed every 3rd day. On day 7, the imDAPs at early maturation stage were dissociated enzymatically with 1× TrypLE, centrifuged at 250 g for 5 minutes.\nimDAPs were produced according to the method described in CN201910169525.0, and expanded as described in Example 10. […] Medium was changed every 3rd day. On day 7, the imDAPs at early maturation stage were dissociated enzymatically with 1× TrypLE, centrifuged at 250 g for 5 minutes. Cells were collected for RT-qPCR analysis of EN1, LMX1A, FOXA2, NURR1, SOX6 and TH gene expression. The maturation medium used in Example 12 contained the following components: Neurobasal™ medium, 1% (v/v) Glutamax, 1% (v/v) HhPLT, 0.5 mM Db-cAMP sodium salt, 200 μM ascorbic acid, 20 ng/mL BDNF, 20 ng/mL GDNF, 1 ng/mL TGF-β3, 10 μM DAPT.\nimDAPs were produced according to the method described in CN201910169525.0, and expanded as described in Example 10. […] Cells were collected and counted by Vi-cell cytometer. The cells were analyzed by RT-qPCR for EN1, LMX1A, FOXA2, NURR1, SOX6 and TH gene expression. […]"}, "imDAPs [3]": {"test_system": "imDAPs", "test": "Flow cytometry (FACS) analysis of FOXA2 expression in expanded imDAPs", "settings": "Example 8; VTN or DLL4/VTN coating, with or without SB431542; FIG. 4C", "description": "• 1. Individualize and collect cells by either Accutase or TrypLE treatment. • 2. Wash cells with 1 ml PBS and pellet cells at 250×g for 15 sec. • 3. Remove supernatant, add ˜200 μl of 4% PFA, mix and fix for 10 min at RT. • 4. Pellet cells at 350×g for 5 min. • 5. Wash cells by 1 ml of FACS buffer and pellet cells at 350×g for 5 min. • 6. Remove supernatant, add 200 μl/tube of FACS buffer/0.1% TritonX, mix for 10 min at RT. • 7. Wash cells by 1 ml of FACS buffer and pellet cells at 350×g for 5 min. • 8. Remove supernatant, add 200 μl/tube of primary antibody diluted in FACS buffer, mix gently, and incubate for 30 min at RT. • 9. Wash cells by 1 ml of FACS buffer and pellet cells at 350×g for 5 min. • 10. Remove supernatant, and add 200 μl of secondary antibody diluted in FACS buffer, mix gently, and incubate for 30 min at RT. • 11. Wash cells by 1 ml of FACS buffer and pellet cells at 300×g for 5 min. • 12. Remove supernatant, add 200 μl of FACS buffer, and run samples on the flow cytometry. (2) qRT-PCR • 1. For qRT-PCR analysis of mRNA gene expression, RNA should be harvested from at least 2×10^6 cells. • 2. Harvest cells, add 350 μl of buffer RLT+1% (vol/vol) s-mercaptoethanol to the well, transfer the lysate to a 1.5 ml tube, and put it immediately on ice. • 3. Perform RNA extraction using the Tiangen Kit (DP430), and follow the manufacturer's protocol ‘Purification of total RNA from animal and human cells’. • 4. When the RNA extraction was completed, determine the RNA concentration using a Nanodrop instrument. • 5. Perform the first-strand cDNA synthesis reaction with 1 μg of RNA using the HiScript TM II Q RT SuperMIX for qPCR(+gDNA wiper) Kit (Vazyme, #R223-01) for RT-qPCR. Follow the manufacturer's ‘First-Strand cDNA Synthesis’ protocol. This reaction would yield a 20 μl product. • 6. Dilute the 10 μl cDNA product in 80 μl of nuclease-free water. • 7. Pipette the diluted cDNA product (1 μl), Sybr green master mix (5 μl, Transgen, #AQ131) and 0.95 μM reverse/forward primer mix (4 μl) into a 384-well PCR plate in triplicate, either manually or using an automated pipetting robot. The complete primer panel included the target genes and the housekeeping gene (RPL13A). In the analysis, also included a sample of undifferentiated hPSCs to determine the gene expression levels relative to the expression in hPSCs. • 8. Analyze the samples by running a quantitative PCR on the LightCycler 480 instrument using a 40× cycle two-step protocol with a 60° C., 60 sec annealing/elongation step and a 95° C., 30 sec denaturation step. The average CT values from the three technical replicates were used for calculations of relative gene expression using the ΔΔCT method. For each gene, calculate the FC of the differentiated samples relative to the undifferentiated control sample using the housekeeping gene for normalization. Next, calculate the average of the FC values on the basis of the housekeeping gene. (3) Immunocytochemical Analysis • 1. Cell fixation: Remove the medium from the cells and wash with PBS. Add 4% (wt/vol) PFA (e.g., 200 μl to a well in a 48-well plate) and incubate at room temperature (RT) for 15 min. after incubation, wash the cells three times in PBS. • 2. Blocking: Remove PBS from the wells and add blocking solution to the cells, add enough volume to cover the cells. Leave the cells in blocking solution for 1 h at RT. • 3. Primary antibodies incubation: Remove the blocking solution from the cells and add the primary antibody solutions (˜100 μl/cm^2). […]"}}}
{"compound": "Cc1ccc2c(c1)C(=O)C1(O)CCN(c3ccccc3)C1=N2", "note": "(centres unmarked) [Blebbistatin]", "values": [{"measurement": "imDAP expansion (cell morphology)", "setting": "imDAPs [1]; Example 1, 5 μM Blebbistatin throughout culture vs no Blebbistatin or plating day only, VTN-coated plates, 5 days, FIG. 1A", "result": "supported better imDAP expansion"}]}
{"compound": "O=C(Nc1cccc2cccnc12)c1ccc(N2C(=O)[C@@H]3[C@H](C2=O)[C@@H]2C=C[C@H]3C2)cc1", "note": "[IWR1]", "values": [{"measurement": "cell morphology during maturation", "setting": "imDAPs [2]", "result": "showed more obvious neural fibers"}]}
{"compound": "NC(=O)c1ccc(-c2nc(-c3ccc4c(c3)OCO4)c(-c3ccccn3)[nH]2)cc1", "note": "[SB431542]", "values": [{"measurement": "FOXA2 expression (percentage of Foxa2+ imDAPs)", "setting": "imDAPs [3]", "result": "could improve FOXA2 expression"}]}
{"compound": "FGF2: fibroblast growth factor, used at 10 ng/ml", "values": [{"measurement": "imDAP expansion (overall conclusion)", "setting": "imDAPs [1]; Example 9", "result": "had no additional effects on imDAP expansion"}, {"measurement": "cell morphology of expanded imDAPs", "setting": "imDAPs [1]; Example 9, 10 ng/ml FGF2 (EM4), DLL4/VTN-coated, day 5, FIG. 5A", "result": "some obvious heterogeneous cells were observed"}]}
